The record followed here is patent publication US20250360166A1, “Cisplatin particles and uses thereof” (CRITITECH, INC., priority 2021, published 2025).

Structures are written as SMILES.

A short description of series [1]: Particle size distribution by laser diffraction (Malvern Mastersizer 3000, Hydro MV). In kind it is physicochemical. As to conditions: dispersed in ethyl acetate. As to the method:
Particle size analyses were conducted on a Malvern Mastersizer™ 3000 using the Hydro MV dispersion unit. A non-validated general PSD method/dispersant method was used to analyze the cisplatin samples. The sample preparation procedure performed was as follows: Weigh 10 to 20 mg of cisplatin into a 30-mL vial, add 20 mL of ethyl acetate. Disperse the sample by vortexing then sonicating the suspension in an ultrasonic bath for 1 minute. Then transfer the sample suspension to the Malvern Hydro MV dispersion unit to obtain obscuration between 5 and 15%.

Series [2] can be described thus: Specific surface area by BET sorptometry. The class given is physicochemical. The source says: The BET specific surface area test procedure is a compendial method included in both the United States Pharmaceopeia and the European Pharmaceopeia.
A short description of series [3]: Bulk density (10 mL graduated cylinder, modified USP <616> Method I). The class given is physicochemical. The note with it: not tapped.
Procedure: As used herein, the bulk density of the cisplatin particles is the mass of the totality of particles in the composition divided by the total volume they occupy when poured into a graduated cylinder and not tapped. The total volume includes particle volume, inter-particle void volume, and internal pore volume.
Bulk density analyses were conducted using a 10 mL graduated cylinder due to low sample volume.
Series [4] has as its system H69 tumor cells. Put plainly: SCP-Cisplatin pilot study, subcutaneous H69 tumor in NCr nu/nu mice, single intra-tumoral injection. In kind it is in vivo. As to the method: 55 CR female NCr nu/nu mice 8-12 weeks of age at start date were injected subcutaneously in the flank with 1×10^7 H69 tumor cells in 50% Matrigel; cell injection volume was 0.1 mL/mouse. A pair match was performed when tumors reach an average size of 100-150 mm^3, after which treatment was initiated as detailed in Table 2.
Tumor cells implanted on Day 0 and treatments initiated on Day 18 (Mean TV=126 mm^3). There were 5 treatment groups (n=5/group); all receiving IT injections =25 uL; 27G needle. The IT vehicle group was administered ethanol/glycerin/water. Animals were sacrificed at humane endpoint of TV=2000 mm^3 or Study Day 51.

For the compound `N.N.[Cl][Pt][Cl]` [Raw, Cisplatin], in series [1], the “PSD-Master sizer Dv10” value worked out at 1.72 μm, the “PSD-Master sizer Dv50” value is recorded as 10.9 μm and the “PSD-Master sizer Dv90” value stood at 25.9 μm. Besides, the “Surface Area” value in series [2] turned out to be 2.44 m^2/g. Moreover, in series [3], the “Bulk Density” value turned out to be 1.01 g/mL.
`N.N.[Cl][Pt][Cl]` [Cisplatin]: the “tumor volume of surviving animals on Day 51” value in series [4] (25 μg/animal intra-tumoral qd × 1) is on record as “increasing tumor volume”. In series [4] (25 μg/animal intra-tumoral qd × 1, n=5, endpoint TV=2000 mm^3 or Day 51), the “animals survived on Day 51” value is listed as 3 of 5.
